Measurements published in patent US11685741B2, “Fluorescent probes” (University of Massachusetts, priority 2017, dated 2023).

What was measured:
Caco-2 cells = assay: Imaging labile iron pools in hepcidin-stimulated Caco-2 cells; format: cell-based, human
Protocol: For kinetic experiment, Caco-2 cells (ATCC) were maintained in Dulbecco's minimal essential medium (DMEM, ATCC) supplemented with 10% fetal bovine serum (FBS, ATCC), 100 U/ml penicillin G, and 100 μg/ml streptomycin at 37° C. in a humid atmosphere of 5% CO2 atmosphere. The culture medium was replaced with a fresh medium every 2-3 days. After being nearly confluent, the cells were used for experiment.
The ability of NIRh-Fret to monitor the changes in cellular labile Fe^2+ stores triggered by hepcidin stimulation, a key iron regulatory hormone produced by the liver which controls iron homeostasis was studied (C. H. Park, et al., J. Biol. Chem., 2001, 276, 7806; G. Nicolas, et al, Blood Cells Mol. Dis., 2002, 29, 327; and T. Ganz, Blood, 2003, 102, 783). […] For Fe^2+ replete conditions, live Caco-2 cells were incubated with 100 μM of ferrous ammonium sulfate (Fe (NH4)2(SO4)2) at 37° C. for 6 h followed by washing with DMEM medium to remove excess Fe^2+ and then 10 μM of NIRh-Fret was added to the culture media and was incubated at 37° C. for 30 min. For hepcidin stimulated condition, Cells was treated first with 100 μM of ferrous ammonium sulfate (Fe (NH4)2(SO4)2) for 1 h, followed by addition of 0.5 μM hepcidin and then incubated for another 5 h.

[1] = Metal ion sensing: UV-vis and fluorescence response to Fe2+ and other metal ions
Protocol: Selectivity and spectroscopic properties of the Rh6GD sensor were investigated to evaluate the performance of the fluorescence sensor in solution. The solution of metal ions were prepared from chloride salts of Ni^2+, Fe^3+, Cu^2+, Mn^2+, Hg^2+, Na^+, Ca^2+, Zn^2+, Ag^+, and nitrate salts of Mg^2+, K^+, Co^2+ (1 mM) in deionized water, except for Cu^2+ and Co^2+, which were dissolved in acetonitrile anhydrous. Solution of Cu^+ was freshly prepared by dissolving tetrakis(acetonitrile)copper(I) (Sigma-Aldrich) into double-distilled water. […]
(§1) The color change for Fe^2+ is readily detected visually. […]
The changes in fluorescence spectra of Rh6GD with the addition of different metal ions in H2O/THF (pH 7.32, v/v 4:1) are shown in FIG. 23. When Fe^2+ was added into the solution of Rh6GD, a large fluorescence enhancement at 549 nm was observed, induced by the complexation of Fe^2+.
Moreover, upon the addition of 1 equiv of Fe^2+ into solutions containing one of the other metal ions tested, the fluorescence was activated and the intensity increased to a level similar to that observed in the presence of Fe^2+ only (the black bars in FIG. 24).
Metal ion selectivity and spectroscopic properties of the sensor were investigated to evaluate the performance of the fluorescence sensor Rh101D. […]
as §1

Row | SMILES | fluorescence of cells with sensor only (Caco-2 cells; 10 μM NIRh-Fret) | fluorescence of hepcidin-treated, iron supplemented cells versus Fe^2+ supplementation only (Caco-2 cells; 100 μM ferrous ammonium sulfate 1 h, then 0.5 μM hepcidin 5 h) | fluorescence after Fe^2+, hepcidin and Bpy (Caco-2 cells; 40 min 1 mM Bpy, versus Fe^2+ supplementation only) | fluorescence enhancement response to Fe^2+ [1] | emission intensity enhancement ([1]; 1.0 equiv of Fe^2+, H2O/THF pH 7.32, 549 nm (Rh6GD), 743 nm (NIRh-Fret))
1 | CCN(CC)c1ccc2c(c1)OC1=C(CCC/C1=C\C=C1\N(C)c3ccccc3C1(C)C)C21c2ccccc2C(=O)N1/N=C\C=C\c1ccc(N(C)C)cc1 (centres unmarked) [NIRh-Fret, (E)-6′-(diethylamino)-2-(((1Z,2E)-3-(4-(dimethylamino)phenyl)allylidene)amino)-4′-(2-((E)-1,3,3-trimethylindolin-2-ylidene)ethylidene)-1′,2′,3′,4′-tetrahydrospiro[isoindoline-1,9′-xanthen]-3-one] | weak fluorescence | significant increase in fluorescent signals | decrease in fluorescence signal |  | 
2 | CCNc1cc2c(cc1C)C1(c3cc(C)c(NCC)cc3O2)c2ccccc2C(=O)N1/N=C/C=C/c1ccc(N(C)C)cc1 [Rh6GD, 2-(((1E,2E)-3-(4-(dimethylamino)phenyl)allylidene)amino)-3′,6′-bis(ethylamino)-2′,7′-dimethylspiro[isoindoline-1,9′-xanthen]-3-one] |  |  |  | 3 fold | around 3 times
